Data as given in the kinase profiling compilation of Christmann-Franck et al. (2016).

What was measured:
Assay in all cases: KINOMEscan competition binding
Conditions in all cases: compound 10.0 µM
[1] = molecular target: NEK3 (human) (UniProt P51956)
[2] = test system: LRRK2 (human), Q5S007 [G2019S]
[3] = molecular target: DDR2 (human) (UniProt Q16832)
[4] = molecular target: PRKCE (human) (UniProt Q02156)
[5] = molecular target: FLT3 (human) (UniProt P36888)
[6] = molecular target: CDC42BPA (human) (UniProt Q5VT25)
[7] = molecular target: GRK1 (human) (UniProt Q15835)
[8] = molecular target: MAP3K10 (human) (UniProt Q02779)
[9] = molecular target: MARK1 (human) (UniProt Q9P0L2)
MARK1 (human), sequence (Q9P0L2 whole entry, looked up): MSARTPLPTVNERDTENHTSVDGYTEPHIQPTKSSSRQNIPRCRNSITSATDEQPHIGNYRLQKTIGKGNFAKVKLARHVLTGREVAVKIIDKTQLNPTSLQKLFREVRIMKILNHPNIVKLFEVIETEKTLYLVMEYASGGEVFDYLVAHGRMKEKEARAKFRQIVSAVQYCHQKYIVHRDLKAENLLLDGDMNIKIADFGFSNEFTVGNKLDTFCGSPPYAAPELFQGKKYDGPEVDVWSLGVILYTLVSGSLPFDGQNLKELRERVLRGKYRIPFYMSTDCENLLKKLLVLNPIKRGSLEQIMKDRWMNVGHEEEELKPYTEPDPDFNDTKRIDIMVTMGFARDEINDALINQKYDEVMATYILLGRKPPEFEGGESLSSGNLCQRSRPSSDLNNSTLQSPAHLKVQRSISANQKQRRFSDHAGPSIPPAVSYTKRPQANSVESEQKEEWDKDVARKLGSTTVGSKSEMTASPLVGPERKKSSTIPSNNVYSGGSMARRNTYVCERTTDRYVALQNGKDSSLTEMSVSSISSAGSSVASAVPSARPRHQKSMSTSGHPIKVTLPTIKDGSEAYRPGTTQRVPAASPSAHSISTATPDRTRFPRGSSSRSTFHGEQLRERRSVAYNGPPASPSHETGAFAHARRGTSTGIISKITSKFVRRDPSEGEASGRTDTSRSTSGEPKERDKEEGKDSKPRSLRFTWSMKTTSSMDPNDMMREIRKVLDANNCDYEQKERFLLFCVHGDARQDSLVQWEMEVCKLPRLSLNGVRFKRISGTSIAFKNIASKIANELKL

[10] = molecular target: NEK4 (human) (UniProt P51957)
[11] = test system: FLT3 (human), P36888 [D835Y]
[12] = molecular target: RPS6KA1 KD1 (human) (UniProt Q15418)
RPS6KA1 KD1 (human), sequence (Q15418 whole entry, looked up): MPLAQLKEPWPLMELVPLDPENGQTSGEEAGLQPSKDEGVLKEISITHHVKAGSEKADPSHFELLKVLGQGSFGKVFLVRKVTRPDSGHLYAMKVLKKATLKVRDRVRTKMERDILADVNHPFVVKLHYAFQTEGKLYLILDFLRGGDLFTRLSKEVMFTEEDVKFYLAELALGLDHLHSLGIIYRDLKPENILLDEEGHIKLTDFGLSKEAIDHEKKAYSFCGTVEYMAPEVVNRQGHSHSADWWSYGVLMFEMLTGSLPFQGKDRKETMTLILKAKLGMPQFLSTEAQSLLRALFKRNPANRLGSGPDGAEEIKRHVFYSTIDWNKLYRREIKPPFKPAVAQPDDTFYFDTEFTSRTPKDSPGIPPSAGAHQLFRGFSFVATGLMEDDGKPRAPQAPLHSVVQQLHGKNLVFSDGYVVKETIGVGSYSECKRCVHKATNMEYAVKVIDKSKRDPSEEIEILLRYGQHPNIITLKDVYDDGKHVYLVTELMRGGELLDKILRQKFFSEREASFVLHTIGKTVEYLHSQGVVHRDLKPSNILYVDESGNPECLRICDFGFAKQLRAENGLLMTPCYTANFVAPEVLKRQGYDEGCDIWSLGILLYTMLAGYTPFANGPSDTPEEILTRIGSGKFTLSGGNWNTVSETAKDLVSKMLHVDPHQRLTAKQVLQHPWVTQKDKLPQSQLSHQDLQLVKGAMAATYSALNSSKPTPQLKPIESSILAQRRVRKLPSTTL

[13] = molecular target: PDGFRB (human) (UniProt P09619)
PDGFRB (human), sequence (P09619 whole entry, looked up): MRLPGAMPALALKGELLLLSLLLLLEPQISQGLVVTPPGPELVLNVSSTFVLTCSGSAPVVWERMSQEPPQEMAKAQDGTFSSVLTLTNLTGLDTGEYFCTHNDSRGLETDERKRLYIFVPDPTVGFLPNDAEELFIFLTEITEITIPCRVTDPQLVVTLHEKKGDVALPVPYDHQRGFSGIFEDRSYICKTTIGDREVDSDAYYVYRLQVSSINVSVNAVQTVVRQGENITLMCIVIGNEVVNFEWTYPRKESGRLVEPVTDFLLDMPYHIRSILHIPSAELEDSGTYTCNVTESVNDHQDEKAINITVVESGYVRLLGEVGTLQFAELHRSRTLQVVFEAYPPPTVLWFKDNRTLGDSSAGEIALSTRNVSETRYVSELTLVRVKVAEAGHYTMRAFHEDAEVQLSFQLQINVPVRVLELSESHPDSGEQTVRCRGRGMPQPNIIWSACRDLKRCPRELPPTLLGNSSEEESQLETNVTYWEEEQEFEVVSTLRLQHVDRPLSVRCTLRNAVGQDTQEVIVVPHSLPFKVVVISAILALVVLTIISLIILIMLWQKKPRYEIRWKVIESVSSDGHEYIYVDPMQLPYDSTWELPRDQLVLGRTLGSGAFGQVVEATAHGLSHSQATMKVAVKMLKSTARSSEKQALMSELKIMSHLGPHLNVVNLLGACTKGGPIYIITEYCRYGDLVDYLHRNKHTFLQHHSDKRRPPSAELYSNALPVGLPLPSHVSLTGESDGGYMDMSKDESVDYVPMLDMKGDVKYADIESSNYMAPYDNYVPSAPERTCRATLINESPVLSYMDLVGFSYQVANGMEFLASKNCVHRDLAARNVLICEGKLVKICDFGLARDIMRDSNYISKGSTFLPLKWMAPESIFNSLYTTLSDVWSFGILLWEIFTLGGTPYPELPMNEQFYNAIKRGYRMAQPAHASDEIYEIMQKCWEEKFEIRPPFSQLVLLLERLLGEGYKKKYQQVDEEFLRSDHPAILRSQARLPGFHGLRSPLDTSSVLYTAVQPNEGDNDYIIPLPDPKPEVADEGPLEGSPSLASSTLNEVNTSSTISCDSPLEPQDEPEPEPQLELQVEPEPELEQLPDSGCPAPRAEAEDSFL

[14] = molecular target: PRKD1 (human) (UniProt Q15139)
[15] = molecular target: AURKC (human) (UniProt Q9UQB9)
[16] = molecular target: MAP3K12 (human) (UniProt Q12852)
[17] = molecular target: STK16 (human) (UniProt O75716)
STK16 (human), sequence (O75716 whole entry, looked up): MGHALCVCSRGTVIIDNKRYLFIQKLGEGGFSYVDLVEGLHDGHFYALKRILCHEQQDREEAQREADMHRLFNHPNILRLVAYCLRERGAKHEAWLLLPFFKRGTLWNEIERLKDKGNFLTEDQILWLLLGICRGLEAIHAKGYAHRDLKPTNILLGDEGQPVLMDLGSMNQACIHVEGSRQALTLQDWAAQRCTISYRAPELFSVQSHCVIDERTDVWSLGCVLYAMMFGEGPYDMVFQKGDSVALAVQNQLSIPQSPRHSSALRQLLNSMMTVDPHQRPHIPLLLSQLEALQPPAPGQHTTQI

[18] = molecular target: PHKG1 (human) (UniProt Q16816)
[19] = molecular target: CAMK2D (human) (UniProt Q13557)
[20] = molecular target: BRSK1 (human) (UniProt Q8TDC3)
[21] = molecular target: TTK (human) (UniProt P33981)
[22] = molecular target: PRKAA1 (human) (UniProt Q13131)
[23] = molecular target: TNNI3K (human) (UniProt Q59H18)
[24] = molecular target: PRKCH (human) (UniProt P24723)
PRKCH (human), sequence (P24723 whole entry, looked up): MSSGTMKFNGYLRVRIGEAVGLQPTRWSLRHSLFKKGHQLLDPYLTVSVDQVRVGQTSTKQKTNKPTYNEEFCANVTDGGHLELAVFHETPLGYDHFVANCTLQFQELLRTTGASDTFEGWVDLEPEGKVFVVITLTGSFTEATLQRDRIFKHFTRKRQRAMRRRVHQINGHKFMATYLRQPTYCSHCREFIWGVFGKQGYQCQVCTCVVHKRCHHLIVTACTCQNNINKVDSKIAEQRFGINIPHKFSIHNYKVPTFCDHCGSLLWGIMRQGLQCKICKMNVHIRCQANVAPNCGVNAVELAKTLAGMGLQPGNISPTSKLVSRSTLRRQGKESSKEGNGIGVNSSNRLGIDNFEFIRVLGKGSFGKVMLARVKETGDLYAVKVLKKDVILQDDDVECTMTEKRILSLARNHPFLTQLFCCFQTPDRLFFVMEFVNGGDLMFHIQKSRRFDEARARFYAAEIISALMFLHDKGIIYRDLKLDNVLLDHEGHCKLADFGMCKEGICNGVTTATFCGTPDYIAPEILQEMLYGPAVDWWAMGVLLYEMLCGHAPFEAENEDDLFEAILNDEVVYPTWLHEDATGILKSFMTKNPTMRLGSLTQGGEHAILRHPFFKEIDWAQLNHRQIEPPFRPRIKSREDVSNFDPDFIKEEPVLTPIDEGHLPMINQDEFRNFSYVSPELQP

[25] = molecular target: CLK3 (human) (UniProt P49761)
[26] = test system: EGFR (human), P00533 [G719C]
[27] = molecular target: STK38 (human) (UniProt Q15208)
[28] = molecular target: PAK1 (human) (UniProt Q13153)
[29] = molecular target: CDK17 (human) (UniProt Q00537)
CDK17 (human), sequence (Q00537 whole entry, looked up): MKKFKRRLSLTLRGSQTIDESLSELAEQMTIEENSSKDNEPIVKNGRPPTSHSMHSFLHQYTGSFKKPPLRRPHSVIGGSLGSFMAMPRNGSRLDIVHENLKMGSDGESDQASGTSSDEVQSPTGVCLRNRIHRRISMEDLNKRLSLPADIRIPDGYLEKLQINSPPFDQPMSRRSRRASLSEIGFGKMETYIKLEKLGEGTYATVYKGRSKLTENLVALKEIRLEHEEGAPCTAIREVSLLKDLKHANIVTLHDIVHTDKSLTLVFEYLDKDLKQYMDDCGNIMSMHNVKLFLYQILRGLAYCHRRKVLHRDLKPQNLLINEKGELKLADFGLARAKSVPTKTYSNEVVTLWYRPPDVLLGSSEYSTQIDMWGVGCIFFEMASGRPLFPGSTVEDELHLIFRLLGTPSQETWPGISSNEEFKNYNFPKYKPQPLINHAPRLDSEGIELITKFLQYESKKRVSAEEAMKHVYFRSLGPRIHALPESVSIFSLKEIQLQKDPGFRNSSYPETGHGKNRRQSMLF

[30] = test system: FGFR3 (human), P22607 [G697C]
FGFR3 (human), P22607 [G697C], sequence (P22607 whole entry G697C, looked up): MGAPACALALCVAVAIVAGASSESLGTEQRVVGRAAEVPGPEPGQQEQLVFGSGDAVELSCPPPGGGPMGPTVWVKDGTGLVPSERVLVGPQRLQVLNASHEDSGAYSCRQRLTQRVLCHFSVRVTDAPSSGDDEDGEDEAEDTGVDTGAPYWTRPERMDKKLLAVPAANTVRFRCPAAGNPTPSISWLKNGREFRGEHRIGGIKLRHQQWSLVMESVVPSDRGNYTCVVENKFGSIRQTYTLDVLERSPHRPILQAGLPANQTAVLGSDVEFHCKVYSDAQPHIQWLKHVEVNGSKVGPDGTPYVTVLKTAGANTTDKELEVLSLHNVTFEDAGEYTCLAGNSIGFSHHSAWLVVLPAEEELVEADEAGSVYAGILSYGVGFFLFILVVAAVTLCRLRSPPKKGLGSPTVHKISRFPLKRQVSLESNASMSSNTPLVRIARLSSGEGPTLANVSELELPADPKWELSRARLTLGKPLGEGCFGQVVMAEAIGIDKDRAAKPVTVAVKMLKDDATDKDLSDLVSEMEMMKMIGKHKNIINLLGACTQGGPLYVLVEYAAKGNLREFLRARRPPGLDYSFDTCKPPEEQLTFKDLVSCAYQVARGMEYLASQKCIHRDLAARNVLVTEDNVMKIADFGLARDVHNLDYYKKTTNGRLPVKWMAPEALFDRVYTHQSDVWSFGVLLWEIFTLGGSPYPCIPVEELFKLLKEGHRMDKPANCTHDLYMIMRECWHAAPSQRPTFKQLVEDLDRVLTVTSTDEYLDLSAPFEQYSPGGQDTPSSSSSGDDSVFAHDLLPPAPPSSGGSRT

[31] = molecular target: TXK (human) (UniProt P42681)
[32] = molecular target: TLK2 (human) (UniProt Q86UE8)
[33] = molecular target: MYO3A (human) (UniProt Q8NEV4)
[34] = molecular target: GRK4 (human) (UniProt P32298)
[35] = molecular target: MAPK3 (human) (UniProt P27361)
[36] = molecular target: PLK4 (human) (UniProt O00444)
[37] = molecular target: STK35 (human) (UniProt Q8TDR2)
[38] = molecular target: ADCK3 (human) (UniProt Q8NI60)
[39] = molecular target: NEK11 (human) (UniProt Q8NG66)
[40] = molecular target: CDK9 (human) (UniProt P50750)

SMILES | kinase still bound, per cent of control [1] | kinase still bound, per cent of control [2] | kinase still bound, per cent of control [3] | kinase still bound, per cent of control [4] | kinase still bound, per cent of control [5] | kinase still bound, per cent of control [6] | kinase still bound, per cent of control [7] | kinase still bound, per cent of control [8] | kinase still bound, per cent of control [9] | kinase still bound, per cent of control [10] | kinase still bound, per cent of control [11] | kinase still bound, per cent of control [12] | kinase still bound, per cent of control [13] | kinase still bound, per cent of control [14] | kinase still bound, per cent of control [15] | kinase still bound, per cent of control [16] | kinase still bound, per cent of control [17] | kinase still bound, per cent of control [18] | kinase still bound, per cent of control [19] | kinase still bound, per cent of control [20] | further results
N#Cc1cc(-c2ccnc(Nc3ccc(-n4cnc(-c5cccnc5)n4)cc3)n2)cc(N2CCOCC2)c1 | 0.75% | 53% | 100% | 100% | 18% | 68% | 100% | 72% | 84% | 100% | 14% | 31% | 8.2% | 66% | 40% | 63% | 12% | 65% | 24% | 85% | kinase still bound, per cent of control [21]: 73%; kinase still bound, per cent of control [22]: 84%; kinase still bound, per cent of control [23]: 80%; kinase still bound, per cent of control [24]: 83%; kinase still bound, per cent of control [25]: 59%; kinase still bound, per cent of control [26]: 71%; kinase still bound, per cent of control [27]: 92%; kinase still bound, per cent of control [28]: 65%; kinase still bound, per cent of control [29]: 18%; kinase still bound, per cent of control [30]: 90%; kinase still bound, per cent of control [31]: 60%; kinase still bound, per cent of control [32]: 65%; kinase still bound, per cent of control [33]: 69%; kinase still bound, per cent of control [34]: 37%; kinase still bound, per cent of control [35]: 100%; kinase still bound, per cent of control [36]: 22%; kinase still bound, per cent of control [37]: 48%; kinase still bound, per cent of control [38]: 38%; kinase still bound, per cent of control [39]: 100%; kinase still bound, per cent of control [40]: 2.1%
CCN1CCN(Cc2ccc(NC(=O)c3ccc(C)c(/C=C/c4cnc5[nH]ccc5c4OC)c3)cc2C(F)(F)F)CC1 | 77% | 18% | 9% | 75% | 0.95% | 15% | 96% | 20% | 94% | 33% | 2.8% | 31% | 0.05% | 3.5% | 1.5% | 22% | 54% | 100% | 100% | 100% | kinase still bound, per cent of control [21]: 6.8%; kinase still bound, per cent of control [22]: 20%; kinase still bound, per cent of control [23]: 1%; kinase still bound, per cent of control [24]: 100%; kinase still bound, per cent of control [25]: 100%; kinase still bound, per cent of control [26]: 0.05%; kinase still bound, per cent of control [27]: 72%; kinase still bound, per cent of control [28]: 100%; kinase still bound, per cent of control [29]: 61%; kinase still bound, per cent of control [30]: 2.5%; kinase still bound, per cent of control [31]: 0.7%; kinase still bound, per cent of control [32]: 93%; kinase still bound, per cent of control [33]: 28%; kinase still bound, per cent of control [34]: 8.2%; kinase still bound, per cent of control [35]: 100%; kinase still bound, per cent of control [36]: 59%; kinase still bound, per cent of control [37]: 23%; kinase still bound, per cent of control [38]: 100%; kinase still bound, per cent of control [39]: 32%; kinase still bound, per cent of control [40]: 96%
